In patent publication US12509734B2, “Systems and methods to assess microbiomes and treatments thereof” (priority 2013, dated 2025):

Legend:
[1] = system: vaginal microbiota (PB-primer target groups); assay: PB-qPCR microbial profiles of vaginal swabs of recurrent BV patients (Example 2); assay type: in vivo, human; details: P4
Method: Sample processing, DNA extraction, and qPCR. Microbial gDNA was purified from swabs in 1-2 ml saline or lysis solution by a high SDS/alkaline lysis—phenol extraction protocol as described previously in Lambert and resuspended in 200 μL TE (10 mM Tris, pH 8, 1 mM EDTA). The lysed bacterial gDNA is stable for over one month at room temperature in lysis solution buffer (data not shown) and this buffer prevents changes in titer due to possible stability issues with different strains of bacteria in saline. An aliquot of purified DNA was assayed by qPCR with 18 universal and phylogenetic branch-inclusive (PB) primers and PCR conditions as described previously in Lambert. Additional primers, targeting the Enterococcus genus and its cytolysin gene CyILL, are provided in SEQ ID NOs: 92 and 95 (Enterococcus), and 93 and 96 (cytolysin gene). Each PB-primer targets a branch of the phylogenetic tree, from whole phyla to family or genus, and is far more inclusive than species-specific primers. Relative LB composition of the vaginal microbiome was determined by dividing the Lactobacillaceae titer by the sum of all PB-primers and by using the disclosed LB-blocker approach. Briefly, the LB-blocker approach uses the difference between the quantitative cycles (Cq) of two parallel qPCR reactions with universal primers targeting the 16S rRNA gene, when one of the reactions is in the presence of LB spp.-specific blocking oligomers (LB-blockers) that have been chemically modified to prevent extension and that partially overlap the universal primer binding site, effectively rendering the LB DNA “invisible” to the universal PCR, even when LB gDNA is present at great excess compared to non-LB gDNA, as is common in healthy and PT samples. PB-primers amplicons were selectively sequenced to confirm they were correctly targeted and to identify the dominant species. These were “cleaned” enzymatically as described in Lambert, and Sanger sequenced at Functional Biosciences (Madison, WI). Sequences were uploaded to Ribosomal Database Project II using its Pipeline function; species were identified based on phylogenetic trees constructed in Molecular Evolutionary Genetics Analysis (MEGA5) software.
Calculations. Cq values from qPCR reactions were converted to molecules per reaction by comparing sample Cq values to a standard curve from the same run of Cq values derived from dilutions of an amplicon of known target of known concentration. Molecules per reaction were converted to cells per swab, assuming an average of 5 ribosomal genes per cell and proportioned to the ratio of the volume of the sample used in the DNA prep and the amount of sample used in the qPCR reaction. Delta Cq (ΔCq) values of LB-blocked reaction pairs were calculated as Cq (blocked sample)−Cq (unblocked sample). Differences between patient groups were compared using the t test in (GraphPad software).

bacterial vaginosis (BV) = assay: Clinical assessment of BV patients after therapy (Amsel criteria, Nugent score, recurrence); assay type: in vivo, human
Source text: Patients. Five African American participants were followed at the Vaginitis Clinic at Wayne State University and had been treated for recurrent episodes symptomatic bouts of BV. Patients were enrolled after protocol explanation and written informed consent was obtained. The study was endorsed by the Human Investigational Review Board of Wayne State University. At the time of enrollment, patients were diagnosed with florid symptomatic acute BV, characterized by the presence of at least 3 of the 4 Amsel criteria (homogeneous vaginal discharge, pH elevated above 4.5, clue cells>20%, positive whiff test) and Nugent scores of at least 8.
At this immediate PT visit, patients were given Catch-All Sample Collection Swabs (Epicentre Biotechnologies, Madison, WI) and 15 mL conical tubes for vaginal specimen self-collection. […] Samples from a previously characterized group of recurrent BV patients, sampled before and after treatment, were also evaluated by Lb-qPCR. Reichman et al., Sexually Transmitted Diseases 36: 732-734, 2009.

## CCS(=O)(=O)CCn1c([N+](=O)[O-])cnc1C [tinidazole]
[1]
  Relative level of the 7 non-LB targets detected after treatment: under 0.1%
  Response to treatment (microbial profile): responded well
Bacterial vaginosis (BV); BV patient (Nugent 10 at acute phase), 500 mg twice a day for 10 days
  Clinical status after treatment: full remission
Bacterial vaginosis (BV); P4, 500 mg bid for 7 days
  Amine test after therapy: negative
  Clinical status one week after completing therapy: entirely asymptomatic
  Vaginal pH after therapy: 4.2
Bacterial vaginosis (BV); P4, followed for a month
  Recurrence of BV: did not recur
Bacterial vaginosis (BV); five recurrent BV patients, Nugent scores of 0 except Patient 5
  Outcome at return within three weeks by Amsel criteria: clinical cure
